Measurements: patent US20020137929A1, “1 - (3-heterocyclylphenyl) isothiourea, -isourea, -guanidine and -amidine herbicidal agents” (Intellectual Property Department, BASF Aktiengesellschaft, priority 1998, published 2002)

Key:
CASOB (Sicklepod) = assay: Postemergence herbicidal evaluation; assay type: in vivo, Cassia obtusifolia; conditions: postemergence
How it was run: (§1)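 Seedlings grown about two weeks were sprayed at 40 psi with compound dispersed in 50/50 acetone/water plus 0.5% TWEEN 20, at about 0.0156 to 0.500 kg/ha. Plants were kept in the greenhouse and scored 4–5 weeks later on a 0–9 visual scale against untreated controls.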

GALAP (Galium) = assay: Postemergence herbicidal evaluation; assay type: in vivo, Galium aparine; conditions: postemergence
How it was run: as §1

ZEAMX (Corn, Field) [1] = assay: Postemergence herbicidal evaluation; assay type: in vivo, Zea mays; conditions: postemergence
How it was run: as §1

AMBEL (Ragweed, Common) = assay: Preemergence herbicidal evaluation; assay type: in vivo, Ambrosia artemisifolia; conditions: rated 4-5 weeks after treatment
How it was run: (§2)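 Greenhouse preemergence test: seed-soil mix sown on ~1 inch soil; aqueous acetone spray at equivalent of ~0.0156–0.500 kg/ha; greenhouse-held and watered; scored 0–9 visually at 4–5 weeks.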

[2] = tested on: CHEAL (Lambsquarters, Common); assay: Preemergence herbicidal evaluation; assay type: in vivo, Chenopodium album; conditions: rated 4-5 weeks after treatment
How it was run: as §2

[3] = tested on: IPOHE (Morningglory, Ivyleaf); assay: Preemergence herbicidal evaluation; assay type: in vivo, Ipomoea hederacea; conditions: rated 4-5 weeks after treatment
How it was run: as §2

ORYSAT (Rice, Tebonnet) = assay: Preemergence herbicidal evaluation; assay type: in vivo, Oryza sativa, (L.) Tebonnet; conditions: rated 4-5 weeks after treatment
How it was run: as §2

[4] = tested on: TRZAWR (Wheat, Winter, cv Riband); assay: Preemergence herbicidal evaluation; assay type: in vivo, Triticum aestivum; conditions: rated 4-5 weeks after treatment
How it was run: as §2

ZEAMX (Corn, Field) [5] = assay: Preemergence herbicidal evaluation; assay type: in vivo, Zea mays; conditions: rated 4-5 weeks after treatment
How it was run: as §2

[6] = tested on: ECHORC (Watergrass (Calif.)); assay: Preemergence weed control under flooded paddy conditions; assay type: in vivo, Echinochloa oryzoides; conditions: rated 3-4 weeks after treatment
How it was run: (§3)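 Seeds or propagules sown in silt loam kept flooded 1.5-3 cm; compounds in 50/50 acetone/water pipetted into flood water at about 0.0313 to 0.500 kg/ha. Greenhouse; visual 0-9 rating versus untreated control 3-4 weeks after treatment.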

CYPIR (Rice Flatsedge) = assay: as above; assay type: in vivo, Cyperus iria; conditions: rated 3-4 weeks after treatment
How it was run: as §3

CYPSE (Flatsedge) [7] = assay: as above; assay type: in vivo, Cyperus serotinus; conditions: rated 3-4 weeks after treatment
How it was run: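 Herbicidal effect is scored visually on a 0-9 scale against an untreated control, three to four weeks after compounds are pipetted into the flood water (1.5 to 3 cm deep) over seeds planted in silt loam at 0.5 cm depth. Rates: about 0.0313 to 0.500 kg/ha.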

[8] = tested on: ECHORC (Watergrass (Calif.)); assay: Postemergence weed control under flooded paddy conditions; assay type: in vivo, Echinochloa oryzoides; conditions: postemergence weeds, rated 3 to 4 weeks after treatment
How it was run: (§4)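 With weeds 3 to 5 cm tall and rice at the 1.5 to 2.5 leaf stage, containers were flooded and water held 1.5 to 3 cm above soil. Compounds in 50/50 v/v aqueous/acetone went into the flood water at about 0.0313 to 0.500 kg/ha a.i. Effects were visually rated 0–9 against controls after three to four weeks in the greenhouse.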

CYPSE (Flatsedge) [9] = assay: as above; assay type: in vivo, Cyperus serotinus; conditions: postemergence weeds, rated 3 to 4 weeks after treatment
How it was run: as §4

## Cn1c(C(F)(F)F)cc(=O)n(-c2cc(N=C3SCC(=O)N3CC(=O)OCC#N)c(Cl)cc2F)c1=O [Compound 109, 2-{{2-Chloro-5-[3,6-dihydro-3-methyl-2,6-dioxo-4-(trifluoromethyl)-1(2H)-pyrimidinyl]-4-fluorophenyl}imino}-4-oxo-3-thiazolidineacetic acid, ester with glycolonitrile]
CASOB (Sicklepod); rate 0.0158 kg/ha
  herbicidal rating CASOB: 1.0
CASOB (Sicklepod); rate 0.0315 kg/ha
  herbicidal rating CASOB: 7.0
CASOB (Sicklepod); rate 0.0630 kg/ha
  herbicidal rating CASOB: 9.0
GALAP (Galium); rate 0.0158 kg/ha
  herbicidal rating GALAP: 1.0
GALAP (Galium); rate 0.0315 kg/ha
  herbicidal rating GALAP: 3.0
GALAP (Galium); rate 0.0630 kg/ha
  herbicidal rating GALAP: 5.0
ZEAMX (Corn, Field) [1]; rate 0.0158 kg/ha
  herbicidal rating ZEAMX: 6.5
ZEAMX (Corn, Field) [1]; rate 0.0315 kg/ha
  herbicidal rating ZEAMX: 6.5
ZEAMX (Corn, Field) [1]; rate 0.0630 kg/ha
  herbicidal rating ZEAMX: 7.0
AMBEL (Ragweed, Common); rate 0.0156 kg/ha
  Preemergence herbicidal rating AMBEL: 3.0
AMBEL (Ragweed, Common); rate 0.0313 kg/ha
  Preemergence herbicidal rating AMBEL: 3.0
AMBEL (Ragweed, Common); rate 0.0625 kg/ha
  Preemergence herbicidal rating AMBEL: 8.0
AMBEL (Ragweed, Common); rate 0.1250 kg/ha
  Preemergence herbicidal rating AMBEL: 9.0
AMBEL (Ragweed, Common); rate 0.2500 kg/ha
  Preemergence herbicidal rating AMBEL: 9.0
AMBEL (Ragweed, Common); rate 0.5000 kg/ha
  Preemergence herbicidal rating AMBEL: 9.0
[2]; rate 0.0156 kg/ha
  Preemergence herbicidal rating CHEAL: 9.0
[2]; rate 0.0313 kg/ha
  Preemergence herbicidal rating CHEAL: 9.0
[2]; rate 0.0625 kg/ha
  Preemergence herbicidal rating CHEAL: 9.0
[2]; rate 0.1250 kg/ha
  Preemergence herbicidal rating CHEAL: 9.0
[2]; rate 0.2500 kg/ha
  Preemergence herbicidal rating CHEAL: 9.0
[2]; rate 0.5000 kg/ha
  Preemergence herbicidal rating CHEAL: 9.0
[3]; rate 0.0156 kg/ha
  Preemergence herbicidal rating IPOHE: 2.0
[3]; rate 0.0313 kg/ha
  Preemergence herbicidal rating IPOHE: 2.0
[3]; rate 0.0625 kg/ha
  Preemergence herbicidal rating IPOHE: 5.0
[3]; rate 0.1250 kg/ha
  Preemergence herbicidal rating IPOHE: 8.0
[3]; rate 0.2500 kg/ha
  Preemergence herbicidal rating IPOHE: 8.0
[3]; rate 0.5000 kg/ha
  Preemergence herbicidal rating IPOHE: 9.0
ORYSAT (Rice, Tebonnet); rate 0.0156 kg/ha
  Preemergence herbicidal rating ORYSAT: 0.0
ORYSAT (Rice, Tebonnet); rate 0.0313 kg/ha
  Preemergence herbicidal rating ORYSAT: 1.0
ORYSAT (Rice, Tebonnet); rate 0.0625 kg/ha
  Preemergence herbicidal rating ORYSAT: 2.0
ORYSAT (Rice, Tebonnet); rate 0.1250 kg/ha
  Preemergence herbicidal rating ORYSAT: 4.0
ORYSAT (Rice, Tebonnet); rate 0.2500 kg/ha
  Preemergence herbicidal rating ORYSAT: 5.0
ORYSAT (Rice, Tebonnet); rate 0.5000 kg/ha
  Preemergence herbicidal rating ORYSAT: 6.0
[4]; rate 0.0156 kg/ha
  Preemergence herbicidal rating TRZAWR: 0.0
[4]; rate 0.0313 kg/ha
  Preemergence herbicidal rating TRZAWR: 1.0
[4]; rate 0.0625 kg/ha
  Preemergence herbicidal rating TRZAWR: 1.0
[4]; rate 0.1250 kg/ha
  Preemergence herbicidal rating TRZAWR: 6.0
[4]; rate 0.2500 kg/ha
  Preemergence herbicidal rating TRZAWR: 4.0
ZEAMX (Corn, Field) [5]; rate 0.0156 kg/ha
  Preemergence herbicidal rating ZEAMX: 3.0
ZEAMX (Corn, Field) [5]; rate 0.0313 kg/ha
  Preemergence herbicidal rating ZEAMX: 3.5
ZEAMX (Corn, Field) [5]; rate 0.0625 kg/ha
  Preemergence herbicidal rating ZEAMX: 4.0
ZEAMX (Corn, Field) [5]; rate 0.1250 kg/ha
  Preemergence herbicidal rating ZEAMX: 6.0
ZEAMX (Corn, Field) [5]; rate 0.2500 kg/ha
  Preemergence herbicidal rating ZEAMX: 6.5
ZEAMX (Corn, Field) [5]; rate 0.5000 kg/ha
  Preemergence herbicidal rating ZEAMX: 7.0
[6]; 0.0313 kg/ha
  ECHORC herbicidal effect rating: 9.0
[6]; 0.0625 kg/ha
  ECHORC herbicidal effect rating: 9.0
[6]; 0.1250 kg/ha
  ECHORC herbicidal effect rating: 9.0
[6]; 0.2500 kg/ha
  ECHORC herbicidal effect rating: 9.0
CYPIR (Rice Flatsedge); 0.0313 kg/ha
  CYPIR herbicidal effect rating: 5.0
CYPIR (Rice Flatsedge); 0.0625 kg/ha
  CYPIR herbicidal effect rating: 7.0
CYPIR (Rice Flatsedge); 0.1250 kg/ha
  CYPIR herbicidal effect rating: 9.0
CYPIR (Rice Flatsedge); 0.2500 kg/ha
  CYPIR herbicidal effect rating: 9.0
CYPSE (Flatsedge) [7]; 0.0313 kg/ha
  CYPSE herbicidal effect rating: 4.5
CYPSE (Flatsedge) [7]; 0.0625 kg/ha
  CYPSE herbicidal effect rating: 5.5
CYPSE (Flatsedge) [7]; 0.1250 kg/ha
  CYPSE herbicidal effect rating: 9.0
CYPSE (Flatsedge) [7]; 0.2500 kg/ha
  CYPSE herbicidal effect rating: 6.5
[8]; Rate 0.0313 kg/ha
  Herbicidal rating ECHORC: 2.0
[8]; Rate 0.0625 kg/ha
  Herbicidal rating ECHORC: 2.0
[8]; Rate 0.1250 kg/ha
  Herbicidal rating ECHORC: 7.0
[8]; Rate 0.2500 kg/ha
  Herbicidal rating ECHORC: 9.0
CYPSE (Flatsedge) [9]; Rate 0.0313 kg/ha
  Herbicidal rating CYPSE: 0.0
CYPSE (Flatsedge) [9]; Rate 0.0625 kg/ha
  Herbicidal rating CYPSE: 0.0
CYPSE (Flatsedge) [9]; Rate 0.2500 kg/ha
  Herbicidal rating CYPSE: 7.0
